The numbers were not newly measured in patent US20230048954A1, “COMPOSITIONS FOR REMOVING NECROTIC OR INFECTED TISSUES FROM BODY SURFACE LESIONS” (priority 2020, published 2023), which cites them from elsewhere.

The conditions of this series: at a temperature of 25° C.

Usually pKa stands for the negative logarithm of the acid dissociation constant. Regarding `CCCS(=O)(=O)O` [1-Propanesulfonic acid], the pKa is −0.86. Consider `O=[N+]([O-])O` [Nitric], for which the pKa is given as −1.4.
